# Measurements published in patent US20230398233A1, “OCULAR ANTIBODY-DRUG CONJUGATES” (ADS THERAPEUTICS LLC, priority 2020, published 2023).
# Assay: Hydrolysis in water control (phosphate buffer)
# Settings: water control (method: phosphate buffer), 37° C., 0-72 h
# Method: The 2 μL working solution of either the test compound or the control compound was added and mixed. The samples were incubated at 37° C. and the reaction was stopped by adding 200 μL of quenching solution at 0, 1, 4, 8, 12, 24, 48 and 72 and vortexed vigorously for −1 min. The solution was then centrifuged at 4,000 rpm at 4° C. for 15 min. The 100 μL of the supernatant was removed and mixed with 100 μL distilled water for LC-MS/MS analysis. The 10 μL standard curve working solution was spiked to 190 μL phosphate solution, The 200 μL of quenching solution was added to each standard curve wells. The blank sample was prepared by adding 2 μL of MeOH/DMSO solvent to replace the working solution. The double blank samples was prepared by adding 2 μL of MeOH/DMSO solvent to replace the working solution and by quenching the matrix with acetonitrile/MeOH.
substance,measurement,value
mPEG-PrA-Dexa [Compound 2],T ½ in water control,No hydrolysis
